According to ChEMBL document CHEMBL3580659, “One-pot multicomponent synthesis of indole incorporated thiazolylcoumarins and their antibacterial, anticancer and DNA cleavage studies” (2015):
Active and inactive are the calls of the source. No cut-off for these calls is given here.

Columns and labels:
NCI-H23 = experiment: Cytotoxicity against human NCI-H23 cells assessed as cell growth level at 10 nM after 48 hrs by sulforhodamine B assay; format: functional
Escherichia coli [1] = experiment: Antibacterial activity against Escherichia coli assessed as bacterial growth inhibition at 50 ug/ml after 24 hrs by cup-plate agar diffusion method; format: functional; details: read-out: IZ
OVCAR-5 [2] = experiment: Cytotoxicity against human OVCAR5 cells assessed as cell growth level at 10 uM after 48 hrs by sulforhodamine B assay; format: functional
PC-3 [3] = experiment: Cytotoxicity against human PC3 cells assessed as cell growth level at 10 uM after 48 hrs by sulforhodamine B assay; format: functional
UACC-257 = experiment: Cytotoxicity against human UACC257 cells assessed as cell growth level at 10 nM after 48 hrs by sulforhodamine B assay; format: functional
SK-MEL-5 = experiment: Cytotoxicity against human SK-MEL-5 cells assessed as cell growth level at 10 nM after 48 hrs by sulforhodamine B assay; format: functional
ACHN = experiment: Cytotoxicity against human ACHN cells assessed as cell growth level at 10 nM after 48 hrs by sulforhodamine B assay; format: functional
BT-549 [4] = experiment: Cytotoxicity against human BT549 cells after 48 hrs by sulforhodamine B assay; format: functional; details: BT-549, 48 h
[5] = Cytotoxicity against human NCI-ADR-RES cells assessed as cell growth level at 1 uM after 48 hrs by sulforhodamine B assay; format: functional
HOP-62 [6] = experiment: Cytotoxicity against human HOP62 cells assessed as cell growth level at 10 uM after 48 hrs by sulforhodamine B assay; format: functional
OVCAR-5 [7] = experiment: Cytotoxicity against human OVCAR5 cells assessed as cell growth level at 100 nM after 48 hrs by sulforhodamine B assay; format: functional
COLO 205 = experiment: Cytotoxicity against human COLO205 cells assessed as cell growth level at 100 uM after 48 hrs by sulforhodamine B assay; format: functional
CAKI-1 = experiment: Cytotoxicity against human CAKI-1 cells assessed as cell growth level at 10 nM after 48 hrs by sulforhodamine B assay; format: functional
786-0 = experiment: Cytotoxicity against human 786-0 cells after 48 hrs by sulforhodamine B assay; format: functional; details: 786-0, 48 h
PC-3 [8] = experiment: Cytotoxicity against human PC3 cells assessed as cell growth level at 100 uM after 48 hrs by sulforhodamine B assay; format: functional
K562 = experiment: Cytotoxicity against human K562 cells assessed as cell growth level at 100 uM after 48 hrs by sulforhodamine B assay; format: functional
M14 = experiment: Cytotoxicity against human M14 cells assessed as cell growth level at 10 nM after 48 hrs by sulforhodamine B assay; format: functional
SF-539 [9] = experiment: Cytotoxicity against human SF539 cells assessed as cell growth level at 10 uM after 48 hrs by sulforhodamine B assay; format: functional
UO-31 = experiment: Cytotoxicity against human UO31 cells after 48 hrs by sulforhodamine B assay; format: functional; details: UO-31, 48 h
HOP-62 [10] = experiment: Cytotoxicity against human HOP62 cells assessed as cell growth level at 100 nM after 48 hrs by sulforhodamine B assay; format: functional
BT-549 [11] = experiment: Cytotoxicity against human BT549 cells assessed as cell growth level at 10 nM after 48 hrs by sulforhodamine B assay; format: functional
SNB-75 = experiment: Cytotoxicity against human SNB75 cells assessed as cell growth level at 1 uM after 48 hrs by sulforhodamine B assay; format: functional
Escherichia coli [12] = experiment: Induction of DNA cleavage of Escherichia coli pUC18 plasmid DNA at 50 ug/ml after 2 hrs by agarose gel elctrophoresis method
OVCAR-8 = experiment: Cytotoxicity against human OVCAR8 cells assessed as cell growth level at 10 uM after 48 hrs by sulforhodamine B assay; format: functional
SF-539 [13] = experiment: Cytotoxicity against human SF539 cells assessed as cell growth level at 100 nM after 48 hrs by sulforhodamine B assay; format: functional
NCI-H460 = experiment: Cytotoxicity against human NCI-H460 cells assessed as cell growth level at 100 uM after 48 hrs by sulforhodamine B assay; format: functional
MCF7 = experiment: Cytotoxicity against human MCF7 cells assessed as cell growth level at 10 nM after 48 hrs by sulforhodamine B assay; format: functional
OVCAR-5 [14] = experiment: Cytotoxicity against human OVCAR5 cells after 48 hrs by sulforhodamine B assay; format: functional; details: OVCAR-5, 48 h
UACC-62 = experiment: Cytotoxicity against human UACC62 cells assessed as cell growth level at 1 uM after 48 hrs by sulforhodamine B assay; format: functional
SK-MEL-28 = experiment: Cytotoxicity against human SK-MEL-28 cells after 48 hrs by sulforhodamine B assay; format: functional; details: SK-MEL-28, 48 h
RXF 393 = experiment: Cytotoxicity against human RXF393 cells assessed as cell growth level at 100 uM after 48 hrs by sulforhodamine B assay; format: functional
SW-620 = experiment: Cytotoxicity against human SW620 cells assessed as cell growth level at 100 nM after 48 hrs by sulforhodamine B assay; format: functional
SF-539 [15] = experiment: Cytotoxicity against human SF539 cells assessed as cell growth level at 10 nM after 48 hrs by sulforhodamine B assay; format: functional
OVCAR-4 = experiment: Cytotoxicity against human OVCAR4 cells assessed as cell growth level at 10 uM after 48 hrs by sulforhodamine B assay; format: functional
OVCAR-3 [16] = experiment: Cytotoxicity against human OVCAR3 cells assessed as cell growth level at 10 uM after 48 hrs by sulforhodamine B assay; format: functional
MDA-MB-231 = experiment: Cytotoxicity against human MDA-MB-231/ATCC cells assessed as cell growth level at 10 nM after 48 hrs by sulforhodamine B assay; format: functional
MOLT-4 = experiment: Cytotoxicity against human MOLT4 cells assessed as cell growth level at 100 uM after 48 hrs by sulforhodamine B assay; format: functional
SR = experiment: Cytotoxicity against human SR cells assessed as cell growth level at 1 uM after 48 hrs by sulforhodamine B assay; format: functional
OVCAR-3 [17] = experiment: Cytotoxicity against human OVCAR3 cells assessed as cell growth level at 10 nM after 48 hrs by sulforhodamine B assay; format: functional
PC-3 [18] = experiment: Cytotoxicity against human PC3 cells assessed as cell growth level at 10 nM after 48 hrs by sulforhodamine B assay; format: functional
[19] = read-out: LC50 (the source's name)
[20] = read-out: pLC50 (the source's name) (converted)

## O=c1oc2ccccc2cc1-c1csc(N/N=C/c2c[nH]c3ccccc23)n1
NCI-H23
  Activity: 86%
Escherichia coli [1]
  zone of inhibition at 50 µg/mL: 15 mm
OVCAR-5 [2]
  Activity: 55.24%
PC-3 [3]
  Activity: -37.33%
UACC-257
  Activity: 96%
SK-MEL-5
  Activity: 96%
ACHN
  Activity: 99%
BT-549 [4]; read-out: GI50
  GI50: 1.13 µM
BT-549 [4]; [19]
  CC50: 5.22 µM
BT-549 [4]; read-out: TGI
  TGI: 2.43 µM
BT-549 [4]; read-out: pGI50 (converted)
  GI50: 1.12 µM
BT-549 [4]; [20]
  CC50: 5.25 µM
BT-549 [4]; read-out: pTGI (converted)
  TGI: 2.45 µM
[5]
  Activity: 104%
HOP-62 [6]
  Activity: 11.3%
OVCAR-5 [7]
  Activity: 99%
COLO 205
  Activity: -36%
CAKI-1
  Activity: 95%
786-0; read-out: GI50
  GI50: 1.35 µM
786-0; [19]
  CC50: > 100 µM
786-0; read-out: TGI
  TGI: 4.09 µM
786-0; read-out: pGI50 (converted)
  GI50: 1.35 µM
786-0; [20]
  CC50: > 100 µM
786-0; read-out: pTGI (converted)
  TGI: 4.07 µM
PC-3 [8]
  Activity: -20%
K562
  Activity: -38%
M14
  Activity: 97%
SF-539 [9]
  Activity: 0.41%
UO-31; read-out: GI50
  GI50: 0.76 µM
UO-31; [19]
  CC50: 5.47 µM
UO-31; read-out: TGI
  TGI: 2.23 µM
UO-31; read-out: pGI50 (converted)
  GI50: 0.759 µM
UO-31; [20]
  CC50: 5.5 µM
UO-31; read-out: pTGI (converted)
  TGI: 2.24 µM
HOP-62 [10]
  Activity: 110%
BT-549 [11]
  Activity: 95%
SNB-75
  Activity: 74%
Escherichia coli [12]
  Activity: Active
OVCAR-8
  Activity: 2.99%
SF-539 [13]
  Activity: 88%
NCI-H460
  Activity: -94%
MCF7
  Activity: 98%
OVCAR-5 [14]; read-out: GI50
  GI50: 2.34 µM
OVCAR-5 [14]; [19]
  CC50: > 100 µM
OVCAR-5 [14]; read-out: TGI
  TGI: 7.8 µM
OVCAR-5 [14]; read-out: pGI50 (converted)
  GI50: 2.34 µM
OVCAR-5 [14]; [20]
  CC50: > 100 µM
OVCAR-5 [14]; read-out: pTGI (converted)
  TGI: 7.76 µM
UACC-62
  Activity: 69%
SK-MEL-28; read-out: GI50
  GI50: 3.96 µM
SK-MEL-28; [19]
  CC50: > 100 µM
SK-MEL-28; read-out: TGI
  TGI: 96.9 µM
SK-MEL-28; read-out: pGI50 (converted)
  GI50: 3.98 µM
SK-MEL-28; [20]
  CC50: > 100 µM
SK-MEL-28; read-out: pTGI (converted)
  TGI: 97.7 µM
RXF 393
  Activity: -6%
SW-620
  Activity: 95%
SF-539 [15]
  Activity: 95%
OVCAR-4
  Activity: -4.09%
OVCAR-3 [16]
  Activity: -80.31%
MDA-MB-231
  Activity: 97%
MOLT-4
  Activity: -40%
SR
  Activity: 81%
OVCAR-3 [17]
  Activity: 99%
PC-3 [18]
  Activity: 105%
